In patent US8476264B2, “N-(3-(2-amino-6,6-difluoro-4,4A,5,6,7,7A-hexahydro-cyclopenta[E][1,3]oxazin-4-yl)-phenylamides as BACE1 inhibitors” (Hoffmann-La Roche Inc., priority 2011, dated 2013) one finds IC50 data, which are given here for 20 molecules.

Molecules are shown by their SMILES.

T1 sequence (P56817 46-501): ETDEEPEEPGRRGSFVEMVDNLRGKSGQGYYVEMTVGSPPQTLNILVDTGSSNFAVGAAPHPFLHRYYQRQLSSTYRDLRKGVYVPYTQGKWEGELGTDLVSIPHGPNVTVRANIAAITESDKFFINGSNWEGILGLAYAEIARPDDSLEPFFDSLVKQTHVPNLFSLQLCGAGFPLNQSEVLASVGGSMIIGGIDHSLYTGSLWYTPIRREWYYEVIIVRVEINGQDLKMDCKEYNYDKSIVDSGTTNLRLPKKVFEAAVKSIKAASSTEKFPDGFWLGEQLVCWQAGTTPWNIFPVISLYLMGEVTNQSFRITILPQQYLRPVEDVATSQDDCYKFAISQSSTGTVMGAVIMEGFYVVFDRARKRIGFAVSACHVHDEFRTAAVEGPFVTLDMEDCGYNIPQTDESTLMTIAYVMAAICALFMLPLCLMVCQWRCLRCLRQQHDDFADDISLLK

This test addresses T1, BACE1 (Homo sapiens, UniProt P56817).
T1 construct: Human HEK293 cells which are stably transfected with a vector expressing a cDNA of the human APP wt gene (APP695); endogenous in cells; host or cells: HEK293 stably transfected with human APP695 wt
In words: Cellular Aβ-lowering assay (Aβ40 ELISA). To be noted: HEK293 cells stably expressing human APP wt (APP695); Aβ40 in supernatant after 18-20 hrs; read-out: BACE1 cell act. Aβ40 IC50. In kind it is cell-based. The procedure: Cellular Aβ-Lowering Assay:
Human HEK293 cells which are stably transfected with a vector expressing a cDNA of the human APP wt gene (APP695) were used to assess the potency of the compounds in a cellular assay. The cells were seeded in 96-well microtiter plates in cell culture medium (Iscove, plus 10% (v/v) fetal bovine serum, glutamine, penicillin/streptomycin) to about 80% confluence and the compounds were added at a 10× concentration in 1/10 volume of medium without FCS containing 8% DMSO (final concentration of DMSO was kept at 0.8% v/v). After 18-20 hrs incubation at 37° C. and 5% CO2 in a humidified incubator the culture supernatant was harvested for the determination of Aβ40 concentrations. 96 well ELISA plates (e.g., Nunc MaxiSorb) were coated with monoclonal antibody which specifically recognize the C-terminal end of Aβ40 (Brockhaus et al., NeuroReport 9, 1481-1486; 1998). After blocking of non-specific binding sites with e.g. 1% BSA and washing, the culture supernatants were added in suitable dilutions together with a horseradish peroxidase-coupled Aβ detection antibody (e.g., antibody 4G8, Senetek, Maryland Heights, Mo.) and incubated for 5 to 7 hrs. Subsequently the wells of the microtiter plate were washed extensively with Tris-buffered saline containing 0.05% Tween 20 and the assay was developed with tetramethylbenzidine/H2O2 in citric acid buffer. After stopping the reaction with one volume 1 N H2SO4 the reaction was measured in an ELISA reader at 450 nm wavelength. The concentrations of Aβ in the culture supernatants were calculated from a standard curve obtained with known amounts of pure Aβ peptide.
Consider `NC1=N[C@@](c2cc(NC(=O)c3cnc(Cl)cn3)ccc2F)(C(F)F)[C@H]2CC(F)(F)C[C@H]2O1` [Example 39, 5-Chloro-pyrazine-2-carboxylic acid [(S)-3-((1R,2R)-2-amino-4-difluoromethyl-6,6-difluoro-4,4a,5,6,7,7a-hexahydro-cyclopenta[e][1,3]oxazin-4-yl)-4-fluoro-phenyl]-amide], for which the IC50 was determined as 1400 nM.
With `NC1=N[C@@](c2cc(NC(=O)c3cnc(OC(F)F)cn3)ccc2F)(C(F)F)[C@H]2CC(F)(F)C[C@H]2O1` [Example 41, 5-Difluoromethoxy-pyrazine-2-carboxylic acid [(S)-3-((1R,2R)-2-amino-4-difluoromethyl-6,6-difluoro-4,4a,5,6,7,7a-hexahydro-cyclopenta[e][1,3]oxazin-4-yl)-4-fluoro-phenyl]-amide], the IC50 came to 7 nM.
Consider `N#Cc1ccc(C(=O)Nc2ccc(F)c([C@]3(CF)N=C(N)O[C@@]4(CF)CC(F)(F)C[C@H]43)c2)nc1` [Example 45, 5-Cyano-pyridine-2-carboxylic acid [3-((1S,7aS)-2-(R)-amino-6,6-difluoro-4,7a-bis-fluoromethyl-4,4a,5,6,7,7a-hexahydro-cyclopenta[e][1,3]oxazin-4-yl)-4-fluoro-phenyl]-amide], for which the concentration for half-maximal inhibition (IC50) came to 11100 nM.
For `NC1=N[C@@](c2cc(NC(=O)c3nn(C(F)F)cc3Cl)ccc2F)(C(F)F)[C@H]2CC(F)(F)C[C@H]2O1` [Example 43, 4-Chloro-1-difluoromethyl-1H-pyrazole-3-carboxylic acid [(S)-3-((1R,2R)-2-amino-4-difluoromethyl-6,6-difluoro-4,4a,5,6,7,7a-hexahydro-cyclopenta[e][1,3]oxazin-4-yl)-4-fluoro-phenyl]-amide] the value was 5.5 nM; for `NC1=N[C@](CF)(c2cc(NC(=O)c3cnc(Cl)cn3)ccc2F)[C@H]2CC(F)(F)C[C@H]2O1` [Example 27, 5-Chloro-pyrazine-2-carboxylic acid [(S)-3-((1R,2R)-2-amino-6,6-difluoro-4-fluoromethyl-4,4a,5,6,7,7a-hexahydro-cyclopenta[e][1,3]oxazin-4-yl)-4-fluoro-phenyl]-amide], 660 nM; for `NC1=N[C@@](c2cc(NC(=O)c3ccc(Cl)cn3)ccc2F)(C(F)F)[C@H]2CC(F)(F)C[C@H]2O1` [Example 37, 5-Chloro-pyridine-2-carboxylic acid [(S)-3-((1R,2R)-2-amino-4-difluoromethyl-6,6-difluoro-4,4a,5,6,7,7a-hexahydro-cyclopenta[e][1,3]oxazin-4-yl)-4-fluoro-phenyl]-amide], 17 nM.
In the case of `NC1=N[C@](CF)(c2cc(NC(=O)c3cnc(C(F)(F)F)cn3)ccc2F)[C@H]2CC(F)(F)C[C@H]2O1` [Example 28, 5-Trifluoromethyl-pyrazine-2-carboxylic acid [(S)-3-((1R,2R)-2-amino-6,6-difluoro-4-fluoromethyl-4,4a,5,6,7,7a-hexahydro-cyclopenta[e][1,3]oxazin-4-yl)-4-fluoro-phenyl]-amide] it was 16 nM; in that of `NC1=N[C@](CF)(c2cc(NC(=O)c3ncc(F)cc3F)ccc2F)[C@H]2CC(F)(F)C[C@H]2O1` [Example 8, 3,5-Difluoro-pyridine-2-carboxylic acid [(S)-3-((1R,2R)-2-amino-6,6-difluoro-4-fluoromethyl-4,4a,5,6,7,7a-hexahydro-cyclopenta[e][1,3]oxazin-4-yl)-4-fluoro-phenyl]-amide], 16.9 nM.
For `CC#CCOc1ccc(C(=O)Nc2ccc(F)c([C@@]3(CF)N=C(N)O[C@@H]4CC(F)(F)C[C@@H]43)c2)nc1` [Example 5, 5-But-2-ynyloxy-pyridine-2-carboxylic acid [(S)-3-((1R,2R)-2-amino-6,6-difluoro-4-fluoromethyl-4,4a,5,6,7,7a-hexahydro-cyclopenta[e][1,3]oxazin-4-yl)-4-fluoro-phenyl]-amide] the value was 0.8 nM; for `NC1=N[C@](CF)(c2cc(NC(=O)c3cnc(OCC(F)(F)F)cn3)ccc2F)[C@H]2CC(F)(F)C[C@H]2O1` [Example 22, 5-(2,2,2-Trifluoro-ethoxy)-pyrazine-2-carboxylic acid [(S)-3-((1R,2R)-2-amino-6,6-difluoro-4-fluoromethyl-4,4a,5,6,7,7a-hexahydro-cyclopenta[e][1,3]oxazin-4-yl)-4-fluoro-phenyl]-amide], 2.5 nM.
For `NC1=N[C@](CF)(c2cc(NC(=O)c3cnc(OC(F)F)cn3)ccc2F)[C@H]2CC(F)(F)C[C@H]2O1` [Example 21, 5-Difluoromethoxy-pyrazine-2-carboxylic acid [(S)-3-((1R,2R)-2-amino-6,6-difluoro-4-fluoromethyl-4,4a,5,6,7,7a-hexahydro-cyclopenta[e][1,3]oxazin-4-yl)-4-fluoro-phenyl]-amide], the IC50 was 0.9 nM.
Consider `NC1=N[C@](CF)(c2cc(NC(=O)c3cnc(OCC(F)F)cn3)ccc2F)[C@H]2CC(F)(F)C[C@H]2O1` [Example 23, 5-(2,2-Difluoro-ethoxy)-pyrazine-2-carboxylic acid [(S)-3-((1R,2R)-2-amino-6,6-difluoro-4-fluoromethyl-4,4a,5,6,7,7a-hexahydro-cyclopenta[e][1,3]oxazin-4-yl)-4-fluoro-phenyl]-amide], for which the IC50 came to 7.8 nM.
Consider `NC1=N[C@@](c2cc(NC(=O)c3cnc(C(F)F)cn3)ccc2F)(C(F)F)[C@H]2CC(F)(F)C[C@H]2O1` [Example 40, 5-Difluoromethyl-pyrazine-2-carboxylic acid [(S)-3-((1R,2R)-2-amino-4-difluoromethyl-6,6-difluoro-4,4a,5,6,7,7a-hexahydro-cyclopenta[e][1,3]oxazin-4-yl)-4-fluoro-phenyl]-amide], for which the IC50 is 44 nM.
With `NC1=N[C@](CF)(c2cc(NC(=O)c3ncc(C(F)(F)F)cc3Cl)ccc2F)[C@H]2CC(F)(F)C[C@H]2O1` [Example 16, 3-Chloro-5-trifluoromethyl-pyridine-2-carboxylic acid [(S)-3-((1R,2R)-2-amino-6,6-difluoro-4-fluoromethyl-4,4a,5,6,7,7a-hexahydro-cyclopenta[e][1,3]oxazin-4-yl)-4-fluoro-phenyl]-amide], the IC50 stood at 0.8 nM.
In the case of `NC1=N[C@](CF)(c2cc(NC(=O)c3ncc(C(F)(F)F)cc3F)ccc2F)[C@H]2CC(F)(F)C[C@H]2O1` [Example 17, 3-Fluoro-5-trifluoromethyl-pyridine-2-carboxylic acid [(S)-3-((1R,2R)-2-amino-6,6-difluoro-4-fluoromethyl-4,4a,5,6,7,7a-hexahydro-cyclopenta[e][1,3]oxazin-4-yl)-4-fluoro-phenyl]-amide], the IC50 amounted to 4.1 nM.
In the case of `Cc1nc(C(=O)Nc2ccc(F)c([C@@]3(C(F)F)N=C(N)O[C@@H]4CC(F)(F)C[C@@H]43)c2)co1` [Example 44, 2-Methyl-oxazole-4-carboxylic acid [(S)-3-((1R,2R)-2-amino-4-difluoromethyl-6,6-difluoro-4,4a,5,6,7,7a-hexahydro-cyclopenta[e][1,3]oxazin-4-yl)-4-fluoro-phenyl]-amide] it was 42 nM; in that of `NC1=N[C@](CF)(c2cc(NC(=O)c3ccc(OCC(F)(F)C(F)F)cn3)ccc2F)[C@H]2CC(F)(F)C[C@H]2O1` [Example 11, 5-(2,2,3,3-Tetrafluoro-propoxy)-pyridine-2-carboxylic acid [(S)-3-((1R,2R)-2-amino-6,6-difluoro-4-fluoromethyl-4,4a,5,6,7,7a-hexahydro-cyclopenta[e][1,3]oxazin-4-yl)-4-fluoro-phenyl]-amide], 14 nM.
In the case of `N#Cc1cnc(C(=O)Nc2ccc(F)c([C@@]3(CF)N=C(N)O[C@@H]4CC(F)(F)C[C@@H]43)c2)c(Cl)c1` [Example 19, 3-Chloro-5-cyano-pyridine-2-carboxylic acid [(S)-3-((1R,2R)-2-amino-6,6-difluoro-4-fluoromethyl-4,4a,5,6,7,7a-hexahydro-cyclopenta[e][1,3]oxazin-4-yl)-4-fluoro-phenyl]-amide], the IC50 came out at 5.5 nM.
As to `NC1=N[C@](CF)(c2cc(NC(=O)c3ccc(OCC4CC4)cn3)ccc2F)[C@H]2CC(F)(F)C[C@H]2O1` [Example 12, 5-Cyclopropylmethoxy-pyridine-2-carboxylic acid [(S)-3-((1R,2R)-2-amino-6,6-difluoro-4-fluoromethyl-4,4a,5,6,7,7a-hexahydro-cyclopenta[e][1,3]oxazin-4-yl)-4-fluoro-phenyl]-amide], the IC50 was 8.6 nM.
Turning to `NC1=N[C@](CF)(c2cc(NC(=O)c3ccc(Cl)cn3)ccc2F)[C@H]2CC(F)(F)C[C@@]2(CF)O1` [Example 47, 5-Chloro-pyridine-2-carboxylic acid [3-((1R,7aR)-2-(S)-amino-6,6-difluoro-4,7a-bis-fluoromethyl-4,4a,5,6,7,7a-hexahydro-cyclopenta[e][1,3]oxazin-4-yl)-4-fluoro-phenyl]-amide], the IC50 is 85 nM.
